Read-outs that look alike come from different tables or passages of the source.
How the values were obtained:
[1] = molecular target: T1, human metabotropic glutamate receptor mGluR5 (Homo sapiens, UniProt P41594); experiment: Cytosolic calcium studies with stably transfected cells (h5CHO), functional assay of mGluR5 receptors; format: cell-based; conditions: for EC50: positive modulators, h5CHO cells preincubated with modulator, stimulated by an EC20 concentration of L-glutamate, read-out: hEC50
T1 construct: expressed in transfected cells; host or cells: CHO-K1 (h5CHO), IPTG-inducible
Protocol: Chinese hamster ovary cells (CHO-K1 cells), stably transfected for inducible expression of a human metabotropic glutamate receptor mGluR5 to form a cell line called h5CHO, are seeded into black clear bottom 96 well plates at a density of 35.000 cells per well. The standard growth medium used (Dulbecco's modified Eagle Medium, DMEM plus L-proline) contains the appropriate inducer isopropyl-β-D-thiogalactopyranosid (IPTG) to achieve optimal receptor expression. One day after seeding the growth medium is exchanged for reconstituted Ca-Kit (Molecular Devices, USA) and incubated for one hour. Ca-Kit is reconstituted in an assay buffer containing 20 mM HEPES pH 7.4, glutamic-pyruvate transaminase, pyridoxal phosphate and sodium pyruvate in Hank's balanced salt solution (HBBS). Agonistic compounds to the receptor elicit increases in cytosolic calcium which can be measured as increases in fluorescence signals by use of a fluorescence imaging plate reader (Molecular Devices). To analyze their potency to negatively modulate the Ca-response test compounds, dissolved in a final DMSO concentration of 0.5%, are added on-line 5 minutes before the agonist to the receptor (L-quisqualic acid at a concentration giving ~80% of the maximal signal). EC50 values for positive allosteric modulators were determined by stimulating the cells which have been preincubated the modulators by an EC20 concentration of L-glutamate.
(§1) The fluorescence signal increase after addition of agonist reflects the increase of cytosolic calcium. Inconsistencies in the amount of cells per well are normalised by using the spatial uniformity correction of the FLIPR operating software Screenworks. The mean of replicated temporal data (n=3-5) is calculated and used for graphical representation. For the evaluation of the pharmacology, the calcium changes in response to different concentrations of agonist or antagonist are determined using a maximum minus minimum (MaxMin) calculation.
(§2) All responses (RFU-values) are determined as percentage of control (= maximum response). EC50 and IC50 are calculated according the logistic equation using XLFit (IDBS, UK) or Prism 4.0 (GraphPad Software, USA). The compounds of the present invention have a potency (EC50 or IC50) within a range of about 0.5 nM to about 100 µM. The left shifts for positive or slient allosteric modulators (PAMs or SAMs, respectively) are determined by comparison of EC50 values from agonist dose response curves run in the presence of 10 µM modulator or vehicle (Vanejevs et al., J. Med. Chem., 2008, 51, 634-647).

[2] = molecular target: T2, mGluR5 receptors (Rattus norvegicus, UniProt P31424); experiment: Cytosolic calcium studies with astrocytes (FLIPR), functional assay of mGluR5 receptors; format: cell-based
T2 construct: Primary astrocyte cultures are prepared from cortices of newborn rats; endogenous in cells; host or cells: primary cortical astrocytes from Sprague-Dawley rat pups (2-4 d old)
Protocol: Primary astrocyte cultures are prepared from cortices of newborn rats as described by Booher and Sensenbrenner (1972, Neurobiology 2(3):97-105). Briefly, Sprague-Dawley rat pups (2 - 4 d old) are decapitated and neocortices are dissected, disintegrated with a nylon filter (pore size 80 µm) and carefully triturated. The cell suspension is plated on poly-D-lysine pre-coated flasks (Costar, Netherlands) and cultivated in Dulbecco's Modified Eagle's Medium (DMEM, Invitrogen, Germany) supplemented with 10% foetal calf serum (FCS, Sigma, Germany), 4 mM glutamine and 50 µg/ml gentamycin (both Biochrom, Germany) at 37°C in a humidified atmosphere of 5% CO2/ 95% air for 7 days with exchanging the medium at day 2 and 6.
After 7 days in vitro (DIV), cells are shaken overnight at 250 rpm to remove oligodendrocytes and microglia. The next day, astrocytes are rinsed twice with CMF-PBS (calcium- and magnesium-free phosphate buffered saline, Biochrom, Germany), trypsinized and subplated on poly-D-lysine pre-coated 96-well plates (Greiner, Germany) at a density of 40,000 cells/well. 24 h after establishing the secondary culture the astrocytes are rinsed with PBS^++ (phosphate buffered saline, Biochrom, Germany) and fed with astrocyte-defined medium (ADM) consisting of DMEM containing 1x G5-supplement (Invitrogen, Germany), 0.5 µg/ml heparan sulfate, and 1.5 µg/ml fibronectin (both Sigma, Germany) (Miller et al., (1993) Brain Res. 618(1):175-8). 3 days later the medium is exchanged and the cells incubated for another 2-3 days, so that at the time of experiments astrocytes are 14-15 DIV.
The increase of cytosolic calcium after stimulation with the mGluR5 agonist L-quisqualate is measured using a fluorometric imaging plate reader (FLIPR) and the Ca-Kit (both Molecular Devices). Prior to addition of agonist or antagonist the medium is aspirated and cells are loaded for 2 h at RT with 150 µl of loading buffer consisting of Ca-sensitive dye reconstituted in sodium chloride (123 mM), potassium chloride (5.4 mM), magnesium chloride (0.8 mM), calcium chloride (1.8 mM), D-glucose (15 mM), and HEPES (20 mM), pH 7.3. Subsequently, plates are transferred to FLIPR to detect calcium increase with the addition of L-quisqualate (100 nM) measured as relative fluorescence units (RFU). If antagonists are tested, these compounds are pre-incubated for 10 minutes at RT before addition of the respective agonist.
For positive modulators, concentration-response curves for quisqualate are performed in the presence and absence of 10 µM modulator to determine the extent of potentiation / agonist potency increase. Thereafter, concentration-response curves for the positive modulator are performed in the presence of a fixed concentration of quisqualate showing the biggest window for potentiation (normally 10-30 nM).
as §1, §2

[3] = Table A1, left shift of agonist EC50, dose response curves in the presence of 10 µM modulator or vehicle, h5CHO cells
[4] = Table A1, positive modulators, fixed concentration of quisqualate (normally 10-30 nM), read-out: rEC50
[5] = Table A1, left shift of quisqualate EC50 in the presence and absence of 10 µM modulator

T2 sequence (P31424 21-1203): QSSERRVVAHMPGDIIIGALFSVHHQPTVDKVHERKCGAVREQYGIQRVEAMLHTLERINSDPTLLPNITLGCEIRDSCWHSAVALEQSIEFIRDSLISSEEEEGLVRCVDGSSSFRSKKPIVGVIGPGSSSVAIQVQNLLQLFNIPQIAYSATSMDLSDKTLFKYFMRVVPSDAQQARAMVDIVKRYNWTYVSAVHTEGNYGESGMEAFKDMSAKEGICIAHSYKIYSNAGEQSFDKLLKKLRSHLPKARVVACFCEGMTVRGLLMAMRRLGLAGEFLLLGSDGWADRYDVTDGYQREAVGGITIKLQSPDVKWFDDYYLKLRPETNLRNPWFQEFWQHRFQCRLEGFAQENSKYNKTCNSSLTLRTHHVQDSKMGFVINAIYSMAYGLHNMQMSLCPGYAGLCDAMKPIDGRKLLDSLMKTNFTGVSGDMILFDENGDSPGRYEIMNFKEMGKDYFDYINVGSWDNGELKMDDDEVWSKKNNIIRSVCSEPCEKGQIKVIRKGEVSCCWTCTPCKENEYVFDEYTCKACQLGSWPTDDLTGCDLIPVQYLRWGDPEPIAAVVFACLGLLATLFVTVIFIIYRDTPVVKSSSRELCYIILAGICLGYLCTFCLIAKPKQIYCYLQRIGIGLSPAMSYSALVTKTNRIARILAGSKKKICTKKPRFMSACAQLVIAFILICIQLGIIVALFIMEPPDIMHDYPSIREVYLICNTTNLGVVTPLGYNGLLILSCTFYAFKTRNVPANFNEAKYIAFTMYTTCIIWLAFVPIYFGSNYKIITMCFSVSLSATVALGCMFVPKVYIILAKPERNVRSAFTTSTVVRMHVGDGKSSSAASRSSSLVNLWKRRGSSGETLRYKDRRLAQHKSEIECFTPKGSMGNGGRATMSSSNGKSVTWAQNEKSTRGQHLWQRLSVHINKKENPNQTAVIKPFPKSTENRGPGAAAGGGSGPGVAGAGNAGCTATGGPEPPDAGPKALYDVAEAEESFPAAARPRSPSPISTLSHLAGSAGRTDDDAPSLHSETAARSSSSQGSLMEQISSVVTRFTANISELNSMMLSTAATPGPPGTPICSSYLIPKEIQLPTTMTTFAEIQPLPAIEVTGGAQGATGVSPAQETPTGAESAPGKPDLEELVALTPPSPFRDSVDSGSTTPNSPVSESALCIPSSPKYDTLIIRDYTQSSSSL
T1 sequence (P41594 21-1212): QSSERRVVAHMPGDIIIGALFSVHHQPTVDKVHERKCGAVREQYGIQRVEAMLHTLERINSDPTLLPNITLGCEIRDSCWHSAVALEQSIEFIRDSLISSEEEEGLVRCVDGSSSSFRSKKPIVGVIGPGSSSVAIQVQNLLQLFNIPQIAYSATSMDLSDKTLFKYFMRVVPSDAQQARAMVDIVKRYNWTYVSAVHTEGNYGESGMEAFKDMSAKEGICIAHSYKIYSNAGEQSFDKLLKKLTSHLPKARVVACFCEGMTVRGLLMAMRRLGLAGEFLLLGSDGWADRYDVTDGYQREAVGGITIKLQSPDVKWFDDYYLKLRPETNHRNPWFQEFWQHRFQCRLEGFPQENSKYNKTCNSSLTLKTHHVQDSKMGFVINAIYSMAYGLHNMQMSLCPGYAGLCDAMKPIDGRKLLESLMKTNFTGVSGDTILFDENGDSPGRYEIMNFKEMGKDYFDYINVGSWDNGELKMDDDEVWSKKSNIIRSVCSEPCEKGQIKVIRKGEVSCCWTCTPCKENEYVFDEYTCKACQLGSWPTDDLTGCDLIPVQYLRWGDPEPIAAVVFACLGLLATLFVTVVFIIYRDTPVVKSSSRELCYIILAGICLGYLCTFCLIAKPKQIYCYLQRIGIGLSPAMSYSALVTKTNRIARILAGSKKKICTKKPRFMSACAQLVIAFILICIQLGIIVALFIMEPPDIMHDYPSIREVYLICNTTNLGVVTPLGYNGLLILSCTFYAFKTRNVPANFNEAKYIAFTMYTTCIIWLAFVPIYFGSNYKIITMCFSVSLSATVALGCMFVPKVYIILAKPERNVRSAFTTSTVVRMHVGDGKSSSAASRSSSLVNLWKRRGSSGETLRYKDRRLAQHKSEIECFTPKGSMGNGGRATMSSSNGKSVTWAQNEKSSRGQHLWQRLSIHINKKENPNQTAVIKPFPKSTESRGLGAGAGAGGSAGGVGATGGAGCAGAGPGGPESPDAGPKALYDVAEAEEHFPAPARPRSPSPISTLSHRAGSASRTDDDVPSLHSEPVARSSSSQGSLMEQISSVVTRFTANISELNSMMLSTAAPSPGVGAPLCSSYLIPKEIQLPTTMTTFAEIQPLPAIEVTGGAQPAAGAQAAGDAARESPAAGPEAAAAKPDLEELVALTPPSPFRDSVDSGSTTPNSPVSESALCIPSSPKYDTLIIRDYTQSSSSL

| h left shift [1, 3] | EC50 ([1]; Table A1) | EC50 [2, 4] | r left shift [2, 5] | IC50 ([1]; Table A2, negative modulation, compounds added 5 minutes before L-quisqualic acid (~80% of the maximal signal), h5CHO cells, read-out: hIC50) | IC50 ([2]; Table A2, pre-incubated 10 minutes before L-quisqualate (100 nM), read-out: rIC50) | h left shift ([1]; Table A3 (SAMs / very weak PAMs), agonist EC50 shift with 10 µM modulator or vehicle, h5CHO cells) | r left shift ([2]; Table A3 (SAMs / very weak PAMs), quisqualate EC50 shift with 10 µM modulator) | EC50 ([2]; Table A3, given in brackets where Ki is n.d., read-out: r EC50) | SMILES |
| --- | --- | --- | --- | --- | --- | --- | --- | --- | --- |
| 1.7-fold | 2.02 µM | 2.05 µM | – | – | – | – | – | – | CN1CCN(S(=O)(=O)N2CCc3ncc(C#Cc4ccccc4)cc3C2)CC1 [Example 78, 6-((4-Methylpiperazin-1-yl)sulfonyl)-3-(phenylethynyl)-5,6,7,8-tetrahydro-1,6-naphthyridine] |
| 2.0-fold | 0.726 µM | 0.472 µM | 2.5-fold | – | – | – | – | – | O=S(=O)(N1CCCCC1)N1CCc2ncc(C#Cc3ccccc3)cc2C1 [Example 54, 3-(Phenylethynyl)-6-(piperidin-1-ylsulfonyl)-5,6,7,8-tetrahydro-1,6-naphthyridine] |
| 1.7-fold | – | 0.0118 µM | 2.3-fold | – | – | – | – | – | O=C(N1CCc2ncc(C#Cc3ccccc3)cc2C1)N(CC(F)(F)F)CC(F)(F)F [Example 49, 3-(Phenylethynyl)-N,N-bis(2,2,2-trifluoroethyl)-7,8-dihydro-1,6-naphthyridine-6(5H)-carboxamide] |
| 1.9-fold | 0.727 µM | 0.233 µM | 1.6-fold | – | – | – | – | – | CCCN1CC2(CCCc3ncc(C#Cc4ccccc4)cc32)OC1=O (racemic) [Example 82, (rac)-3'-(Phenylethynyl)-3-propyl-7',8'-dihydro-6'H-spiro[oxazolidine-5,5'-quinolin]-2-one] |
| 2.4-fold | 0.884 µM | 0.427 µM | 3.3-fold | – | – | – | – | – | CN(C)C(=O)N1CCO[C@@H]2c3cc(C#Cc4ccccc4)cnc3CC[C@@H]21 (racemic) [Example 27, (rac)-cis-N,N-Dimethyl-9-(phenylethynyl)-4a,5,6,10b-tetrahydro-2H [1,4]oxazino[2,3-f]quinoline-4(3H)-carboxamide] |
| – | – | – | – | 0.74 µM | 2.33 µM | – | – | – | N#Cc1cccc(C#Cc2cnc3c(c2)CN(C(=O)N2CCCCC2)CC3)c1 [Example 51, 3-((6-(Piperidine-1-carbonyl)-5,6,7,8-tetrahydro-1,6-naphthyridin-3-yl)ethynyl)benzonitrile] |
| – | – | – | – | – | – | 1.5-fold | 1.5-fold | 0.0511 µM | CC(C)S(=O)(=O)N1CCc2ncc(C#Cc3ccccc3)cc2C1 [Example 81, 6-(Isopropylsulfonyl)-3-(phenylethynyl)-5,6,7,8-tetrahydro-1,6-naphthyridine] |
| 2.2-fold | 0.146 µM | 0.00436 µM | 1.2-fold | – | – | – | – | – | CC(C)COC(=O)N1CCc2ncc(C#Cc3ccccc3)cc2C1 [Example 41, Isobutyl 3-(phenylethynyl)-7,8-dihydro-1,6-naphthyridine-6(5H)-carboxylate] |

Continued, compound first:

| SMILES | h left shift [1, 3] | EC50 ([1]; Table A1) | EC50 [2, 4] | r left shift [2, 5] | IC50 ([1]; Table A2, negative modulation, compounds added 5 minutes before L-quisqualic acid (~80% of the maximal signal), h5CHO cells, read-out: hIC50) | IC50 ([2]; Table A2, pre-incubated 10 minutes before L-quisqualate (100 nM), read-out: rIC50) | h left shift ([1]; Table A3 (SAMs / very weak PAMs), agonist EC50 shift with 10 µM modulator or vehicle, h5CHO cells) | r left shift ([2]; Table A3 (SAMs / very weak PAMs), quisqualate EC50 shift with 10 µM modulator) | EC50 ([2]; Table A3, given in brackets where Ki is n.d., read-out: r EC50) |
| --- | --- | --- | --- | --- | --- | --- | --- | --- | --- |
| O=S(=O)(N1CCOCC1)N1CCc2ncc(C#Cc3ccccc3)cc2C1 [Example 55, 4-((3-(Phenylethynyl)-7,8-dihydro-1,6-naphthyridin-6(5H)-yl)sulfonyl)morpholine] | 2.7-fold | 0.44 µM | 0.325 µM | 3.8-fold | – | – | – | – | – |
| O=C1OC2(CCCc3ncc(C#Cc4cccc(F)c4)cc32)CN1c1ccccc1 (racemic) [Example 67, (rac)-3'-((3-Fluorophenyl)ethynyl)-3-phenyl-7',8'-dihydro-6'H-spiro[oxazolidine-5,5'-quinolin]-2-one] | 2.1-fold | 1.31 µM | 0.0883 µM | 1.7-fold | – | – | – | – | – |
| CC(C)(C)OC(=O)N1CCc2ncc(C#Cc3ccccc3)cc2C1 [Example 42, tert-Butyl 3-(phenylethynyl)-7,8-dihydro-1,6-naphthyridine-6(5H)-carboxylate] | 3.1-fold | 0.281 µM | 0.131 µM | 1.9-fold | – | – | – | – | – |
| COC(=O)N1C2CCC1c1cc(C#Cc3cccc(F)c3)cnc1C2 (racemic) [Example 59, (rac)-Methyl 3-((3-fluorophenyl)ethynyl)-6,7,8,9-tetrahydro-5H-5,8-epiminocyclohepta[b]pyridine-10-carboxylate] | 1.8-fold | 0.277 µM | 0.102 µM | 3.3-fold | – | – | – | – | – |
| COC1CCCc2ncc(C#Cc3ccccc3)cc21 (racemic) [Example 1, (rac)-5-Methoxy-3-(phenylethynyl)-5,6,7,8-tetrahydroquinoline] | 2.6-fold | 0.0321 µM | 0.0227 µM | 4.9-fold | – | – | – | – | – |
| CCN1CCO[C@@H]2c3cc(C#Cc4ccccc4)cnc3CC[C@@H]21 (racemic) [Example 14, (rac)-cis-4-Ethyl-9-(phenylethynyl)-3,4,4a,5,6,10b-hexahydro-2H-[1,4]oxazino[2,3-f]quinoline] | 2.2-fold | 0.659 µM | 0.58 µM | 3.6-fold | – | – | – | – | – |
| O=C(N1CCC1)N1CCO[C@@H]2c3cc(C#Cc4ccccc4)cnc3CC[C@@H]21 (racemic) [Example 65, (rac)-cis-Azetidin-1-yl-(9-(phenylethynyl)-5,6-dihydro-2H-[1,4]oxazino[2,3-f]quinolin-4(3H,4aH,10bH)-yl)methanone] | 1.8-fold | – | 3.2 µM | – | – | – | – | – | – |
| CN1CC2(CCCc3ncc(C#Cc4ccccc4)cc32)OC1=O (racemic) [Example 11, (rac)-3-Methyl-3'-(phenylethynyl)-7',8'-dihydro-6'H-spiro[oxazolidine-5,5'-quinolin]-2-one] | 1.8-fold | 0.0537 µM | 0.0586 µM | 2.9-fold | – | – | – | – | – |
| CCCN1CCO[C@@H]2c3cc(C#Cc4ccc(F)cc4)cnc3CC[C@@H]21 (racemic) [Example 20, (rac)-cis-9-((4-Fluorophenyl)ethynyl)-4-propyl-3,4,4a,5,6,10b-hexahydro-2H-[1,4]oxazino[2,3-f]quinoline] | 1.8-fold | 0.394 µM | 1.35 µM | 3.3-fold | – | – | – | – | – |
